The record followed here is patent US11555035B2, “Heterocyclic compound and harmful arthropod-controlling agent containing same” (SUMITOMO CHEMICAL COMPANY, LIMITED, priority 2017, dated 2023).

Molecules are shown by their SMILES.

The data set has as its system German cockroaches (Blattella germanica). As to the kind of experiment: Test method 9: treated filter paper with sucrose, German cockroaches. It counts as in vivo. The note with it: 500 ppm, 0.7 mL on filter paper, male adults, after 6 days. Here is the method:
Next, Test Examples are used to show effects of the Present compounds on harmful arthropods. In the following Test Examples, the tests were carried out at 25° C.
Each test compound is formulated according to the process described in the Formulation Example 5 to obtain each formulation, and water is added thereto to prepare a diluted solution containing a prescribed concentration of each test compound.
A filter paper having a diameter of 5.5 cm is lined with the inside bottom of a cup having a diameter of 5.5 cm, each of said diluted solutions (0.7 mL) is added dropwise on the filter paper, and sucrose (30 mg) is homogeneously placed into said cup as a feed. Two(2) male adult German cockroaches (Blattella germanica) are released into said cup, and the cup is covered. After 6 days, life and death of the German cockroach are examined, the number of the dead insects is counted, and the mortality of insects is calculated by the following equation. Mortality(%)=(Number of dead insects/Number of test insects)×100

As to `CCS(=O)(=O)c1cc(-c2ncc(C#N)cn2)c(N)nc1-c1nc2cc(C(F)(F)F)cnc2n1C` [compound 7], the mortality (as a rule, the percentage killed) came out at 100%.
Regarding `CCS(=O)(=O)c1cc(-c2ncc(C#N)cn2)cnc1-c1nc2cc(C(F)(F)F)cnc2n1C` [compound 2], the mortality was found to be 100%.
